# How the values were obtained:
# [1] = tested on: LPS-injected mice; experiment: Social exploration test in the LPS-induced model of depression; assay type: in vivo
# Description: In a preliminary screening experiment, subjects were 4-6 months-old male C57BL/6 (Jackson Laboratories, USA). Animals were housed 2-3/cage, kept in an air-conditioned room (23+°C) and given ad libitum access to food and water. The mice were kept in a reversed light/dark cycle, with lights off from 7 a.m. to 7 p.m. All experiments were approved by the Hebrew University of Jerusalem Ethics Committee on Animal Care and Use. In preparation for the Sucrose Preference Test, mice were habituated 2-3 times to sucrose drinking, by exposing them overnight to two graduated tubes, one containing water and the other containing sucrose solution (1%, w/v). Water and sucrose consumption were measured, and sucrose preference was computed by dividing the amount of sucrose consumed by drinking (ml sucrose) by the total drinking volume (ml of sucrose + water). One day later, the weight of the mice and the food in their cages was weighed for later analysis of food consumption and body weight changes. […] In this test, the measured locomotor activity reflects not only motor capacity, but particularly the innate motivation for spatial exploration (which increases the distance travelled) and the anxiety level (which reduces the distance travelled, in general, and particularly the distance and time spent in the center of the open field). […] The distance travelled (cm), the velocity of the movement (cm/second), the time spent (seconds), distance travelled (cm) in the center area of the arena, as well as the number of entries from the perimeter area into the center of the arena were automatically measured over a 4-minute period, using EthoVision XT video tracking system and software (Noldus, The Netherlands). […] Social exploration, defined as the time of near contact between the nose of the subject and the juvenile in the small cage was recorded for 4 min, using computerized in-house software. Sucrose preference was assessed, as described above, between 8 to 27 hr post LPS injection. […]
# [2] = tested on: treatment-resistant major depression patients; experiment: Clinical trial of celecoxib plus CBD in treatment-resistant major depression patients; assay type: in vivo, human; details: celecoxib or CBD, each by itself
# Procedure: In the current study, the antidepressant effect of a combination of celecoxib and CBD is tested in a randomized, prospective, double-blind clinical trial in 80 treatment-resistant major depression patients of both genders, in the age range of 23-70 years. […] The safety and efficacy of celecoxib, CBD and their combination vs. vehicle placebo are assessed. Primary endpoints include the changes from baseline to post-treatment in overall depression levels, and particularly in the vegetative and somatic symptoms of depression, which are highly associated with the inflammatory status of the patients. Secondary endpoints include the changes from baseline to post-treatment in anxiety levels, overall functioning and clinical impression, as well as anhedonia.
# Treatment-resistant depressed patients undergo psychological assessment using the Montgomery-Asberg Depression Rating Scale (MADRS), with further analysis of the 3 specific factors of this scale (vegetative symptoms, dysphoria, and retardation), the Somatic Symptoms Scale-8, the Hamilton Anxiety Rating Scale (HARS), the Clinical Global Improvement and Severity Scales (CGI-I and CGI-S), and the Snaith-Hamilton Pleasure Scale (SHAPS). Subjects are treated twice daily (per os) with either a formulation containing celecoxib and CBD or with vehicle placebo. […]
# [3] = tested on: LPS-injected mice; experiment: Porsolt forced swim test in LPS-injected mice; assay type: in vivo; details: young-adult male mice
# Procedure: Given the mixed effects that CBD administration had in the reversal of LPS-induced depressive-like behavior in young-adult mice, the effects of CBDA by itself, and in combination with CBD, were examined in young-adult (2.5-3.5 months old) female and male mice. Mice were injected (i.p.) with either vehicle, CBDA or CBD and CBDA combination, and 1 hr later with LPS (330 µg/kg). Following injections, the mice were examined according to the methods described in Example 8, apart from the Porsolt forced swim test that replaced the open field test in male mice. In this test, mice were placed in a plastic cylinder (with a height of 20 cm and diameter of 50 cm), filled with 25° C. water. The time spent immobile, defined as the absence of all movement except for motions required to maintain head above water, and the latency for the first immobility episode, were recorded for 6 min, and manually analyzed by an experienced experimenter.
SMILES,"social exploration vs LPS-injected vehicle-treated mice ([1]; adult (6-9 months-old) male mice, acute CBD)","social exploration ([1]; adult and young adult female mice, acute CBD, saline or LPS)","LPS-induced reduction in social exploration ([1]; young-adult male mice, CBD 30 mg/kg i.p. 3 consecutive days)","changes in depression, anxiety, anhedonia and subjective improvement [2]","time spent in immobility, forced swim test ([3]; CBDA 1, 5 mg/kg, CBD 25 and CBDA 1 mg/kg)",latency to the first episode of immobility ([3]; printed: CBDA 1 mg/kg)
"C=C(C)[C@@H]1CCC(C)=C[C@H]1c1c(O)cc(CCCCC)cc1O [CBD, cannabidiol]",significantly increased social interest,None of these parameters was influenced by treatment with CBD,no effects,only mild changes,–,–
"C=C(C)[C@@H]1CCC(C)=C[C@H]1c1c(O)cc(CCCCC)c(C(=O)O)c1O [CBDA, Cannabidiolic acid]",–,–,–,–,no significant difference,significantly increased
